Series [1] in a line: in vitro. In kind it is cell-based. As to conditions: African green monkey. Here is the method: (§1) Vero-E6 GFP cells were seeded at 10^4 cells/well in 96-well black plates (PerkinElmer). The following day, cells were incubated, with or without compounds, with 2 μM P-gp inhibitor CP-100356 [47]. The media was removed 24 h after treatment, and the total well GFP fluorescence was measured using Victor NIVO 5 with 485/535 nm excitation wavelength. The cytotoxic effect of compounds was calculated as a percentage of cell viability with respect to untreated control. Data were analyzed using Prism 9. Version 9.1.2.

Series [2] has as its system SARS-CoV-2 BetaCoV/Belgium/GHB-03021/2020 strain. The series can be described thus: microbe, parasite or virus in culture. The following applies: read-out: EC50 + CP_100356. In kind it is cell-based.
The target of series [3] is SARS-CoV-2 Mpro (Severe acute respiratory syndrome coronavirus 2, UniProt P0DTD1). In words: biochemical. In kind it is biochemical. As to conditions: for IC50: FRET assay, concentration reducing Mpro activity by 50%, mean ± SD of three independent experiments, highest concentration tested 30 μM; for remaining activity at 30 µM: SARS-CoV-2 Mpro, at 30 μM (highest concentration tested), read-out: Percentage of control activity measured in the presence of the indicated drug concentration.

The subject of series [4] is Vero-E6 GFP cells. The series can be described thus: in vitro. The following applies: concentration reducing Vero E6-GFP viability by 50%; 2 μM CP-100356, 24 h; read-out: CC50 +CP_100356. In kind it is cell-based. Here is the method:
as §1

[5] abbreviates: Severe acute respiratory syndrome coronavirus 2, Vero C1008, 72 h, concentration reducing viral replication by 50%, […].

Data on 10 compounds can be found in article PMC11124136, “New Thiazolidine-4-One Derivatives as SARS-CoV-2 Main Protease Inhibitors” (Pharmaceuticals, 2024).

Where two headings read alike, the source gives them in different places.

A word on the melting point: it is the temperature, or range, at which the solid turns liquid. A word on the CC50: it is the concentration giving 50% cytotoxicity. In general, EC50 refers to the concentration that produces a half-maximal response. In general, IC50 refers to the concentration that gives 50% inhibition. Consider `O=C1CSC(c2ccc([N+](=O)[O-])cc2)N1CCc1ccccc1` (stereo not drawn) [Compound 4a, 2-(4-nitrophenyl)-3-(phenylethyl)-1,3-thiazolidin-4-one], for which the melting point was determined as 125 °C. Also, in series [1], the CC50 at 24 h was above 100 µM. Besides, in series [2] (setting [5]), the EC50 is above 100 µM. Moreover, in series [3], the IC50 is above 30 µM and the remaining activity at 30 µM was found to be 53%.
In turn, `O=C1CSC(c2ccc([N+](=O)[O-])cc2)N1CCc1ccccc1F` (stereo not drawn) [Compound 4b, 2-(4-nitrophenyl)-3-(2-fluorophenylethyl)-1,3-thiazolidin-4-one] returned a melting point of 150 to 151 °C. In series [1], this compound returned a half-maximal cytotoxic concentration (CC50) at 24 h above 100 µM. In addition, the concentration for a half-maximal effect (EC50) in series [2] (setting [5]) is above 100 µM. Also, in series [3], the IC50 is above 30 µM and the remaining activity at 30 µM was determined as 70%.
For the compound `O=C1CSC(c2ccc([N+](=O)[O-])cc2)N1CCc1cccc(F)c1` (stereo not drawn) [Compound 4c, 2-(4-nitrophenyl)-3-(3-fluorophenylethyl)-1,3-thiazolidin-4-one], the melting point is 165 to 167 °C. This compound also registered a CC50 at 24 h in series [1] above 100 µM. In series [2] (setting [5]), the EC50 is above 100 µM. Further, in series [3], the concentration for half-maximal inhibition (IC50) was above 30 µM and the remaining activity at 30 µM worked out at 87%.
For `O=C1CSC(c2ccc([N+](=O)[O-])cc2)N1CCc1ccc(F)cc1` (stereo not drawn) [Compound 4d, 2-(4-nitrophenyl)-3-(4-fluorophenylethyl)-1,3-thiazolidin-4-one], the melting point lay in the range of 149 to 151 °C. In series [1], this compound displayed a CC50 at 24 h above 100 µM. The EC50 in series [2] (setting [5]) was above 100 µM. The compound also showed an IC50 in series [3] of 27.5 ± 5.5 µM.
Compound `COc1ccccc1CCN1C(=O)CSC1c1ccc([N+](=O)[O-])cc1` (stereo not drawn) [Compound 4e] showed a CC50 at 24 h in series [1] above 100 µM. The EC50 in series [2] (setting [5]) was above 100 µM. In addition, in series [3], the remaining activity at 30 µM came out at 54%.
In turn, `O=C1CSC(c2ccc([N+](=O)[O-])cc2)N1CCc1ccccc1Cl` (stereo not drawn) [Compound 4e] yielded a melting point of 123 to 124.5 °C.
With `COc1ccc(CCN2C(=O)CSC2c2ccc([N+](=O)[O-])cc2)cc1` (stereo not drawn) [Compound 4f], in series [1], the half-maximal cytotoxic concentration (CC50) at 24 h was above 100 µM. The concentration for a half-maximal effect (EC50) in series [2] (setting [5]) was above 100 µM. Moreover, the remaining activity at 30 µM in series [3] stood at 82%.
Take `O=C1CSC(c2ccc([N+](=O)[O-])cc2)N1CCc1ccccc1Cl` (stereo not drawn) [Compound 4g]: in series [1], the cytotoxic concentration (CC50) at 24 h was above 100 µM. In addition, the 50% effective concentration (EC50) in series [2] (setting [5]) was above 100 µM.
On to `O=C1CSC(c2ccc([N+](=O)[O-])cc2)N1CCc1ccc(Cl)cc1` (stereo not drawn) [Compound 4i], for which, in series [1], the cytotoxic concentration (CC50) at 24 h is above 100 µM. The EC50 in series [2] (setting [5]) was above 100 µM. Further, the remaining activity at 30 µM in series [3] was determined as 54%.
With `CC(C)C[C@H](NC(=O)OCc1ccccc1)C(=O)N[C@@H](CC1CCNC1=O)C(O)S(=O)(=O)O` (stereo partly drawn) [GC376, reference compound], the 50% cytotoxic concentration (CC50) in series [4] was above 100 µM. For the same compound, the concentration giving a half-maximal response (EC50) in series [2] worked out at 0.626 ± 0.06 µM.
